# Results as given in patent US20130217060A1 (Butamax(TM) Advanced Biofuels LLC, priority 2007, published 2013).
# Where two headings read alike, the source gives them in different places.
# Experiments:
# [1] = target: 3-hydroxybutyryl-CoA dehydrogenase (Clostridium acetobutylicum, UniProt P52041); assay: Hydroxybutyryl-CoA dehydrogenase activity (NADH oxidation, 340 nm); details: induced E. coli BL21-AI culture, one typical assay
# [2] = test system: Lactobacillus plantarum PN0512; assay: Growth of L. plantarum PN0512 in the presence of butanols at different temperatures (OD600 for six hours); format: cell-based; set-up: key to Growth in the presence of 1-butanol / Growth in the presence of isobutanol / Growth in the presence of 2-butanol: “+” = growth observed as an increase in OD600.; “−” = no growth observed, i.e. no change in OD600
# [3] = test system: Saccharomyces cerevisiae BY4741; details: for % Growth Inhibition: six hours
# Protocol: Tolerance levels were determined for yeast strain Saccharomyces cerevisiae BY4741 (described in Example 21) at 25° C. and 30° C. as follows. The strain was cultured in YPD medium. Overnight cultures in the absence of any test compound were started in 25 mL of YPD medium in 150 mL flasks with incubation at 30° C. or at 25° C. in shaking water baths. The next morning, each overnight culture was diluted into a 500 mL flask-containing 300 mL of fresh medium to an initial OD600 of about 0.1. The flasks were incubated in shaking water baths at 30° C. or 25° C., using the same temperature as used for each overnight culture. […] The ΔOD600 was calculated by subtracting the initial OD600 from the final OD600 at 6 hours. The percent growth inhibition relative to the control culture was calculated as follows: % Growth Inhibition=100−[100(Sample ΔOD600/Control ΔOD600)].
# [4] = test system: acetoacetyl-CoA thiolase; assay: Acetoacetyl-CoA thiolase activity in cell free extracts (absorbance 303 nm); details: cell free extract of arabinose-induced E. coli BL21-AI culture, one typical assay
# [5] = test system: E. coli strain BW25113; assay: Survival of E. coli after 30 min MEK shock (colony counts); format: cell-based, Escherichia coli; details: for % Survival at 28° C. / % Survival at 37° C.: average of duplicate experiments
# [6] = test system: butanol dehydrogenase; assay: Butanol dehydrogenase activity (NADH oxidation, 340 nm); format: biochemical, Clostridium acetobutylicum; details: induced E. coli BL21-AI culture, one typical assay
# [7] = target: T1, crotonase (Clostridium acetobutylicum, UniProt P52046); assay: Crotonase activity assay (Stern); format: biochemical; details: induced E. coli BL21-AI culture, one typical assay
# T1 construct: made in house; host or cells: E. coli BL21-AI (pDEST14crt); S. cerevisiae BY4741 (pNY11) and BY4743 (pNY103)
# Protocol: Crotonase activity was assayed as described by Stern (Methods Enzymol. 1, 559-566, (1954)).
# Enzyme assays were performed as described above.
# Chain of 3-hydroxybutyryl-CoA dehydrogenase (P52041 whole entry): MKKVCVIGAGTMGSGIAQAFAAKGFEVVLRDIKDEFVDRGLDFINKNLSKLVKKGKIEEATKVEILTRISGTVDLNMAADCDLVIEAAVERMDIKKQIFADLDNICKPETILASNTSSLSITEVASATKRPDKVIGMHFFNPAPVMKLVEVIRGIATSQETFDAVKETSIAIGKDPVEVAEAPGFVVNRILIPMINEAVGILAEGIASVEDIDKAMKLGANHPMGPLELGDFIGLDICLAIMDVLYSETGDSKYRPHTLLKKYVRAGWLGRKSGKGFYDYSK
molecule,measurement,setting,value
BHBD protein: 3-hydroxybutyryl-CoA dehydrogenase (SEQ ID NO:6) from C. acetobutylicum ATCC 824 expressed in E. coli,specific activity (hydroxybutyryl-CoA dehydrogenase),[1],57.4 µmol/mg/min
1-butanol,Growth in the presence of 1-butanol,"[2]; 1.0 % w/v, 37° C.",+
same,Growth in the presence of 1-butanol,"[2]; 1.2 % w/v, 37° C.",+
same,Growth in the presence of 1-butanol,"[2]; 1.4 % w/v, 37° C.",+
same,Growth in the presence of 1-butanol,"[2]; 1.5 % w/v, 25° C.",+
same,Growth in the presence of 1-butanol,"[2]; 1.5 % w/v, 30° C.",+
same,Growth in the presence of 1-butanol,"[2]; 1.5 % w/v, 37° C.",+
same,Growth in the presence of 1-butanol,"[2]; 1.6 % w/v, 37° C.",+
same,Growth in the presence of 1-butanol,"[2]; 1.8 % w/v, 37° C.",+
same,Growth in the presence of 1-butanol,"[2]; 2.0 % w/v, 25° C.",+
same,Growth in the presence of 1-butanol,"[2]; 2.0 % w/v, 30° C.",+
same,Growth in the presence of 1-butanol,"[2]; 2.0 % w/v, 37° C.",+
same,Growth in the presence of 1-butanol,"[2]; 2.1 % w/v, 37° C.",+
same,Growth in the presence of 1-butanol,"[2]; 2.2 % w/v, 37° C.",+
same,Growth in the presence of 1-butanol,"[2]; 2.3 % w/v, 37° C.",+
same,Growth in the presence of 1-butanol,"[2]; 2.4 % w/v, 25° C.",+
same,Growth in the presence of 1-butanol,"[2]; 2.4 % w/v, 30° C.",+
same,Growth in the presence of 1-butanol,"[2]; 2.4 % w/v, 37° C.",−
same,Growth in the presence of 1-butanol,"[2]; 2.7 % w/v, 30° C.",+
same,Growth in the presence of 1-butanol,"[2]; 2.7 % w/v, 37° C.",−
same,Growth in the presence of 1-butanol,"[2]; 2.9 % w/v, 25° C.",+
same,Growth in the presence of 1-butanol,"[2]; 2.9 % w/v, 30° C.",−
same,Growth in the presence of 1-butanol,"[2]; 2.9 % w/v, 37° C.",−
same,Growth in the presence of 1-butanol,"[2]; 3.1 % w/v, 25° C.",+
same,Growth in the presence of 1-butanol,"[2]; 3.1 % w/v, 30° C.",−
same,Growth in the presence of 1-butanol,"[2]; 3.1 % w/v, 37° C.",−
same,Growth in the presence of 1-butanol,"[2]; 3.2 % w/v, 25° C.",−
same,Growth in the presence of 1-butanol,"[2]; 3.2 % w/v, 30° C.",−
same,Growth in the presence of 1-butanol,"[2]; 3.3 % w/v, 25° C.",−
same,Growth in the presence of 1-butanol,"[2]; 3.4 % w/v, 25° C.",−
same,Growth in the presence of 1-butanol,"[2]; 3.4 % w/v, 30° C.",−
same,concentration in which growth was observed,[2]; 25° C.,3.1%
same,concentration in which growth was not observed,[2]; 30° C.,2.9%
same,concentration in which growth was observed,[2]; 30° C.,2.7%
same,concentration in which growth was not observed,[2]; 37° C.,2.4%
same,concentration in which growth was observed,[2]; 37° C.,2.3%
same,Growth in the presence of 1-butanol,"[2]; […] w/v, 37° C.",−
same,growth inhibition of strain BY4741 at 25° C. compared with 30° C.,[3]; 1% 1-butanol,less inhibited
same,% Growth Inhibition,"[3]; 1% 1-butanol, 25° C.",43%
same,% Growth Inhibition,"[3]; 1% 1-butanol, 30° C.",64%
same,% Growth Inhibition,"[3]; 2% 1-butanol, 25° C.",No growth
same,% Growth Inhibition,"[3]; 2% 1-butanol, 30° C.",No growth
ThIA protein: acetoacetyl-CoA thiolase (SEQ ID NO:2) from C. acetobutylicum ATCC 824 expressed in E. coli,specific activity (acetoacetyl-CoA thiolase),[4],16.0 µmol/mg/min
CC(C)CO [isobutanol],Growth in the presence of isobutanol,"[2]; 3.3 % w/v, 30° C.",−
CCC(C)O (centres unmarked) [2-butanol],Growth in the presence of 2-butanol,"[2]; 1.8 % w/v, 37° C.",+
same,Growth in the presence of 2-butanol,"[2]; 2.1 % w/v, 37° C.",+
same,Growth in the presence of 2-butanol,"[2]; 2.9 % w/v, 25° C.",+
same,Growth in the presence of 2-butanol,"[2]; 2.9 % w/v, 30° C.",+
same,Growth in the presence of 2-butanol,"[2]; 2.9 % w/v, 37° C.",+
same,Growth in the presence of 2-butanol,"[2]; 3.1 % w/v, 37° C.",+
same,Growth in the presence of 2-butanol,"[2]; 3.6 % w/v, 37° C.",+
same,Growth in the presence of 2-butanol,"[2]; 3.8 % w/v, 25° C.",+
same,Growth in the presence of 2-butanol,"[2]; 3.8 % w/v, 30° C.",+
same,Growth in the presence of 2-butanol,"[2]; 3.8 % w/v, 37° C.",+
same,Growth in the presence of 2-butanol,"[2]; 4.0 % w/v, 30° C.",+
same,Growth in the presence of 2-butanol,"[2]; 4.3 % w/v, 25° C.",+
same,Growth in the presence of 2-butanol,"[2]; 4.3 % w/v, 30° C.",+
same,Growth in the presence of 2-butanol,"[2]; 4.3 % w/v, 37° C.",+
same,Growth in the presence of 2-butanol,"[2]; 4.7 % w/v, 25° C.",+
same,Growth in the presence of 2-butanol,"[2]; 4.7 % w/v, 30° C.",+
same,Growth in the presence of 2-butanol,"[2]; 4.7 % w/v, 37° C.",−
same,Growth in the presence of 2-butanol,"[2]; 4.9 % w/v, 25° C.",+
same,Growth in the presence of 2-butanol,"[2]; 4.9 % w/v, 30° C.",−
same,Growth in the presence of 2-butanol,"[2]; 5.2 % w/v, 25° C.",+
same,Growth in the presence of 2-butanol,"[2]; 5.2 % w/v, 37° C.",−
same,Growth in the presence of 2-butanol,"[2]; 5.6 % w/v, 25° C.",−
same,Growth in the presence of 2-butanol,"[2]; 5.6 % w/v, 37° C.",−
same,Growth in the presence of 2-butanol,"[2]; 6.0 % w/v, 37° C.",−
same,Growth in the presence of 2-butanol,"[2]; 6.4 % w/v, 37° C.",−
same,Growth in the presence of 2-butanol,"[2]; 7.3 % w/v, 37° C.",−
same,concentration in which growth was observed,[2]; 25° C.,5.2%
same,concentration in which growth was not observed,[2]; 30° C.,4.9%
same,concentration in which growth was observed,[2]; 30° C.,4.7%
same,concentration in which growth was not observed,[2]; 37° C.,4.5%
same,concentration in which growth was observed,[2]; 37° C.,4.3%
same,Growth in the presence of 2-butanol,"[2]; […] w/v, 30° C.",+
ThIB protein: acetoacetyl-CoA thiolase (SEQ ID NO:4) from C. acetobutylicum ATCC 824 expressed in E. coli,specific activity (acetoacetyl-CoA thiolase),[4],14.9 µmol/mg/min
"CCC(C)=O [MEK, 2-butanone]",% Survival at 28° C.,[5]; MEK 4 % w/v,100%
same,% Survival at 37° C.,[5]; MEK 4 % w/v,100%
same,% Survival at 28° C.,[5]; MEK 6 % w/v,100%
same,% Survival at 37° C.,[5]; MEK 6 % w/v,0%
same,% Survival at 28° C.,[5]; MEK 8 % w/v,0.002%
same,% Survival at 37° C.,[5]; MEK 8 % w/v,0%
same,concentration with full survival,[5]; exposure at 28° C.,6 % w/v
same,concentration with full survival,[5]; exposure at 37° C.,4 % w/v
same,concentration with no survival,[5]; exposure at 37° C.,6 % w/v
"BdhB protein: butanol dehydrogenase (SEQ ID NO:14) from C. acetobutylicum ATCC 824 expressed in E. coli (protein, listed as Clostridium acetobutylicum) MVDFEYSIPTRIFFGKDKINVLGRELKKYGSKVLIVYGGGSIKRNGIYDKAVSILEKNSIKFYELAGVEPNPRVTTVEKGVKICRENGVEVVLAIGGGSAIDCAKVIAAACEYDGNPWDIVLDGSKIKRVLPIASILTIAATGSEMDTWAVINNMDTNEKLIAAHPDMAPKFSILDPTYTYTVPTNQTAAGTADIMSHIFEVYFSNTKTAYLQDRMAEALLRTCIKYGGIALEKPDDYEARANLMWASSLAINGLLTYGKDTNWSVHLMEHELSAYYDITHGVGLAILTPNWMEYILNNDTVYKFVEYGVNVWGIDKEKNHYDIAHQAIQKTRDYFVNVLGLPSRLRDVGIEEEKLDIMAKESVKLTGGTIGNLRPVNASEVLQIFKKSV",specific activity (butanol dehydrogenase),[6],0.169 µmol/mg/min
"crotonase protein: crotonase (SEQ ID NO:8) from C. acetobutylicum ATCC 824 expressed in E. coli (protein, listed as Clostridium acetobutylicum) MELNNVILEKEGKVAVVTINRPKALNALNSDTLKEMDYVIGEIENDSEVLAVILTGAGEKSFVAGADISEMKEMNTIEGRKFGILGNKVFRRLELLEKPVIAAVNGFALGGGCEIAMSCDIRIASSNARFGQPEVGLGITPGFGGTQRLSRLVGMGMAKQLIFTAQNIKADEALRIGLVNKVVEPSELMNTAKEIANKIVSNAPVAVKLSKQAINRGMQCDIDTALAFESEAFGECFSTEDQKDAMTAFIEKRKIEGFKNR",specific activity (crotonase),[7],444 µmol/mg/min
"BdhA protein: butanol dehydrogenase (SEQ ID NO:16) from C. acetobutylicum 824 expressed in E. coli (protein, listed as Clostridium acetobutylicum) MLSFDYSIPTKVFFGKGKIDVIGEEIKKYGSRVLIVYGGGSIKRNGIYDRATAILKENNIAFYELSGVEPNPRITTVKKGIEICRENNVDLVLAIGGGSAIDCSKVIAAGVYYDGDTWDMVKDPSKITKVLPIASILTLSATGSEMDQIAVISNMETNEKLGVGHDDMRPKFSVLDPTYTFTVPKNQTAAGTADIMSHTFESYFSGVEGAYVQDGIAEAILRTCIKYGKIAMEKTDDYEARANLMWASSLAINGLLSLGKDRKWSCHPMEHELSAYYDITHGVGLAILTPNWMEYILNDDTLHKFVSYGINVWGIDKNKDNYEIAREAIKNTREYFNSLGIPSKLREVGIGKDKLELMAKQAVRNSGGTIGSLRPINAEDVLEIFKKSY",specific activity (butanol dehydrogenase),[6],0.102 µmol/mg/min
